Consider 2 compounds from PubChem BioAssay (NCI).

Among the test systems are MDA-MB-435; HCT-116 colon; M14 melanoma; HCT-15 colon; HCC-2998 colon; OVCAR-4 ovarian; NCI-H522 lung; RXF 393 renal; HT29 colon; NCI-H23 lung.
Common to all, as to assay: inhibition of tumour cell growth, NCI panel, 48 h

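Compound exposure: 48 hours, 5 concentrations, 96-well plates. Here, GI50 denotes the concentration required for 50% inhibition of growth. TGI is the concentration that stops growth completely.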 A value given as a limit tells only on which side of the number the result lay.

Take `COc1cc(-c2csc(NC(=O)Nc3cc(C(F)(F)F)cc(C(F)(F)F)c3)n2)cc(OC)c1OC`: the GI50 with MDA-MB-435 is 2.81 µM; in the assay on HCT-116 colon, 2.55 µM; with M14 melanoma it was 2.35 µM; in the assay on HCT-15 colon, 2.51 µM; in the assay with HCC-2998 colon, 3.81 µM; in the assay on OVCAR-4 ovarian it was 2.68 µM. The GI50 with NCI-H522 lung was 1.6 µM; with RXF 393 renal it was 2.13 µM; in the assay on HT29 colon it was 2.67 µM; in the assay with NCI-H23 lung, 2.38 µM. Also, the TGI in the assay with MDA-MB-435 amounted to 10.5 µM; in the assay with HCT-116 colon, 10.2 µM; with M14 melanoma, 6.24 µM; with HCT-15 colon it was 10.9 µM; with HCC-2998 colon it was 14.4 µM; in the assay on OVCAR-4 ovarian, 17 µM. For the same compound, the TGI in the assay with NCI-H522 lung came to 5 µM; in the assay on RXF 393 renal, 6.17 µM; with HT29 colon it was 11.2 µM; with NCI-H23 lung, 13.2 µM.
Consider `COc1ccc([I+]c2ccccc2)cc1`, for which the GI50 is 10.1 µM in the assay on MDA-MB-435; 0.735 µM with HCT-116 colon; 9.09 µM with M14 melanoma; 42.1 µM in the assay on HCT-15 colon; 10 µM in the assay with HCC-2998 colon; 1.34 µM in the assay with OVCAR-4 ovarian. Also, the GI50 is 24.5 µM in the assay on NCI-H522 lung, 13.9 µM in the assay on RXF 393 renal, 4.22 µM in the assay with HT29 colon and 3.75 µM in the assay with NCI-H23 lung. The TGI in the assay with MDA-MB-435, with HCT-116 colon, in the assay with M14 melanoma, in the assay with HCT-15 colon, in the assay with HCC-2998 colon and with OVCAR-4 ovarian was over 100 µM each time. The TGI in the assay with NCI-H522 lung, in the assay with RXF 393 renal, in the assay on HT29 colon and in the assay on NCI-H23 lung was over 100 µM throughout.
